Laboratory results: patent publication US10597388B2, “Pyridazinone herbicides” (FMC CORPORATION, priority 2014, dated 2020)

Key:
Type in all cases: in vivo
[1] = test system: blackgrass (Alopecurus myosuroides); test: Test A greenhouse herbicide test, postemergence; conditions: for Plant response rating, Blackgrass: 125 g ai/ha, 0 to 100 scale where 0 is no effect and 100 is complete control; for Blackgrass plant response rating: 500 g ai/ha, 0 to 100 scale, 0 is no effect, 100 is complete control
Procedure, shortened: (§1)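 Scores are visual injury ratings from 0 (no effect) to 100 (complete control) versus untreated plants, taken roughly 10 d after treatment in the greenhouse. Treatment was postemergence, on one- to two-leaf plants 2–10 cm high growing in a loam soil/sand mix.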

[2] = test system: galium (catchweed bedstraw, Galium aparine); test: Test A greenhouse herbicide test, postemergence; conditions: for Galium plant response rating: 0 to 100 scale, 0 is no effect, 100 is complete control
Procedure, shortened: as §1

[3] = test system: johnsongrass (Sorghum halepense); test: Test C greenhouse herbicide test, pre- and postemergence
Procedure, shortened: (§2)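 Percent-control ratings (0 none, 100 complete) came from visual comparison with controls held alongside in the greenhouse for 13–15 d. Treatments covered soil application at sowing and foliar application to young plants 2–18 cm tall.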

[4] = test system: pigweed (Amaranthus retroflexus); test: as above
Procedure, shortened: as §2

[5] = test system: wheat (winter wheat, Triticum aestivum); test: as above
Procedure, shortened: as §2

[6] = test system: chickweed (common chickweed, Stellaria media); test: Test C greenhouse herbicide test, postemergence
From the text: (§3) At the same time, plants selected from these crop and weed species and also chickweed (common chickweed, Stellaria media), kochia (Kochia scoparia), and oat, wild (wild oat, Avena fatua), were planted in pots containing Redi-Earth® planting medium (Scotts Company, 14111 Scottslawn Road, Marysville, Ohio 43041) comprising spaghnum peat moss, vermiculite, wetting agent and starter nutrients and treated with postemergence applications of test chemicals formulated in the same manner. Plants ranged in height from 2 to 18 cm (1- to 4-leaf stage) for postemergence treatments. Treated plants and controls were maintained in a greenhouse for 13 to 15 d, after which time all species were compared to controls and visually evaluated. Plant response ratings, summarized in Table C, are based on a scale of 0 to 100 where 0 is no effect and 100 is complete control. A dash (-) response means no test result.

[7] = test system: kochia (Kochia scoparia); test: Test C greenhouse herbicide test, postemergence
From the text: as §3

[8] = test system: oat, wild (wild oat, Avena fatua); test: Test C greenhouse herbicide test, postemergence
From the text: as §3

[9] = 125 g ai/ha, 0 to 100 scale where 0 is no effect and 100 is complete control
[10] = Postemergence, 31 g ai/ha, 0 to 100 scale (0 no effect, 100 complete control)
[11] = Postemergence, 125 g ai/ha, scale 0 to 100, 0 is no effect, 100 is complete control
[12] = Postemergence, 250 g ai/ha, scale 0 to 100, 0 no effect, 100 complete control, 13 to 15 d
[13] = postemergence, 62 g ai/ha, scale 0 to 100, 0 no effect, 100 complete control
[14] = Preemergence, 31 g ai/ha, scale 0 to 100, 0 is no effect, 100 is complete control
[15] = Preemergence, 62 g ai/ha, scale 0 to 100, 0 is no effect, 100 is complete control
[16] = Preemergence, 125 g ai/ha, scale 0 to 100, 0 is no effect, 100 is complete control
[17] = Preemergence, 250 g ai/ha, scale 0 to 100, 0 no effect, 100 complete control
[18] = 500 g ai/ha, visual rating after approx. 10 d, 0 to 100 scale (0 no effect, 100 complete control)
[19] = Postemergence, 31 g ai/ha, scale 0 to 100 (0 no effect, 100 complete control)

SMILES	Plant response rating, Blackgrass [1]	Blackgrass plant response rating [1]	Plant response rating, Galium [2, 9]	Plant response rating, Johnsongrass [3, 11]	Plant response rating, Johnsongrass [3, 12]	Plant response rating, Pigweed [4, 11]	Plant response rating, Pigweed [4, 12]	Plant response rating, Wheat [5, 11]	Plant response rating, Wheat [5, 12]	Plant response rating, Chickweed [6, 11]	Plant response rating, Chickweed [6, 12]	Chickweed plant response rating [6, 13]	Plant response rating, Kochia [7, 11]	Plant response rating, Kochia [7, 12]	Plant response rating, Oat, Wild [8, 11]	Plant response rating, Oat, Wild [8, 12]	Plant response rating, Johnsongrass [3, 14]	Plant response rating, Johnsongrass [3, 15]	Plant response rating, Johnsongrass [3, 16]	Johnsongrass plant response rating [3, 17]	other results
CCC(=O)Oc1c(C)nn(C)c(=O)c1-c1c(C)ccc2ccccc12 [Compound 78]	30	80	80	5	5	75	80	5	10	70	80	60	85	90	60	60					Galium plant response rating ([2]; 500 g ai/ha): 100; Johnsongrass plant response rating [3, 10]: 5; Johnsongrass plant response rating [3, 13]: 5; Pigweed plant response rating [4, 10]: 50; Pigweed plant response rating [4, 13]: 60; Wheat plant response rating [5, 10]: 0; Wheat plant response rating [5, 13]: 5; Chickweed plant response rating [6, 10]: 30; Kochia plant response rating [7, 10]: 45; Kochia plant response rating [7, 13]: 70; Oat, Wild plant response rating [8, 10]: 35; Oat, Wild plant response rating [8, 13]: 50
COC(=O)Oc1c(C)nn(C)c(=O)c1-c1c(C)sc2ccc(C)cc12 [Compound 80]	80	80	90	5	15	95	95	10	15	95	98	95	90	90	90	95	5	5	30	35	Galium plant response rating ([2]; 500 g ai/ha): 90; Johnsongrass plant response rating [3, 10]: 5; Johnsongrass plant response rating [3, 13]: 5; Pigweed plant response rating [4, 10]: 85; Plant response rating, Pigweed [4, 14]: 100; Plant response rating, Pigweed [4, 15]: 100; Plant response rating, Pigweed [4, 16]: 100; Pigweed plant response rating [4, 17]: 100; Pigweed plant response rating [4, 13]: 90; Wheat plant response rating [5, 10]: 0; Plant response rating, Wheat [5, 14]: 0; Plant response rating, Wheat [5, 15]: 0; Plant response rating, Wheat [5, 16]: 0; Wheat plant response rating [5, 17]: 0; Wheat plant response rating [5, 13]: 5; Chickweed plant response rating [6, 10]: 90; Kochia plant response rating [7, 10]: 90; Kochia plant response rating [7, 13]: 90; Oat, Wild plant response rating [8, 10]: 90; Oat, Wild plant response rating [8, 13]: 90
COC(=O)Oc1cnn(C)c(=O)c1-c1c(C)sc2ccccc12 [Compound 97]	90	90	100	0	5	60	75	0	0	15	60	0	70	85	5	10	0	0	0	0	Plant response rating, Galium [2, 18]: 100; Johnsongrass plant response rating [3, 13]: 0; Plant response rating, Pigweed [4, 14]: 5; Plant response rating, Pigweed [4, 15]: 35; Plant response rating, Pigweed [4, 16]: 65; Pigweed plant response rating [4, 17]: 65; Pigweed plant response rating [4, 13]: 50; Plant response rating, Wheat [5, 14]: 0; Plant response rating, Wheat [5, 15]: 0; Plant response rating, Wheat [5, 16]: 0; Wheat plant response rating [5, 17]: 0; Wheat plant response rating [5, 13]: 0; Chickweed plant response rating [6, 10]: 0; Kochia plant response rating [7, 13]: 0; Oat, Wild plant response rating [8, 13]: 5
CCCC(=O)Oc1c(C)nn(C)c(=O)c1-c1c(C)sc2ccc(C)cc12 [Compound 105]	80	90	100	0	0	100	98	5	5	98	100	95	95	100	90	90	10	20	20	60	Plant response rating, Galium [2, 18]: 100; Plant response rating, Johnsongrass [3, 19]: 5; Plant response rating, Pigweed [4, 19]: 85; Plant response rating, Pigweed [4, 14]: 98; Plant response rating, Pigweed [4, 15]: 100; Plant response rating, Pigweed [4, 16]: 100; Pigweed plant response rating [4, 17]: 100; Plant response rating, Wheat [5, 19]: 0; Plant response rating, Wheat [5, 14]: 0; Plant response rating, Wheat [5, 15]: 10; Plant response rating, Wheat [5, 16]: 10; Wheat plant response rating [5, 17]: 5; Plant response rating, Chickweed [6, 19]: 90; Plant response rating, Kochia [7, 19]: 95; Plant response rating, Oat, Wild [8, 19]: 60
CCCC(=O)Oc1c(C)nn(C)c(=O)c1-c1c(CC)sc2ccc(C)cc12 [Compound 107]	80	90	100	0	20	98	98	0	0	95	98	90	90	90	40	35	0	0	10	20	Plant response rating, Galium [2, 18]: 100; Plant response rating, Johnsongrass [3, 19]: 0; Plant response rating, Pigweed [4, 19]: 85; Plant response rating, Pigweed [4, 14]: 100; Plant response rating, Pigweed [4, 15]: 100; Plant response rating, Pigweed [4, 16]: 100; Pigweed plant response rating [4, 17]: 100; Plant response rating, Wheat [5, 19]: 0; Plant response rating, Wheat [5, 14]: 0; Plant response rating, Wheat [5, 15]: 0; Plant response rating, Wheat [5, 16]: 0; Wheat plant response rating [5, 17]: 5; Plant response rating, Chickweed [6, 19]: 90; Plant response rating, Kochia [7, 19]: 70; Plant response rating, Oat, Wild [8, 19]: 20
